Where a SMILES comes first, the peptide text is derived from it. [ ]: non-standard residue; d: D form. Dolaproine = CO[C@@H]([C@@H]1CCCN1)[C@@H](C)C(=O)O; Dil = CC[C@H](C)[C@H](NC)[C@@H](CC(=O)O)OC; NMeV = CN[C@H](C(=O)O)C(C)C
Test system: A431 cells
Test: 2D tumor cell model cytotoxicity, Cell Counting Kit-8 (CCK-8)
Type: cell-based, human
Settings: treated 96 h, CCK-8 viability, mean±SEM (n=3)
Protocol: 2D tumor cell model was used, where ADCs of varying concentrations were added to a 96-well plate seeded with A431 cells and treated for 96 h. The cell viability was examined using Cell Counting Kit-8 (CCK-8).

For CC[C@H](C)[C@@H]([C@@H](CC(=O)N1CCC[C@H]1[C@H](OC)[C@@H](C)C(=O)N[C@@H](Cc1ccccc1)C(=O)O)OC)N(C)C(=O)[C@@H](NC(=O)[C@@H](NC)C(C)C)C(C)C [MMAF, monomethylaurethatin F] (H-[NMeV]V[Dil][Dolaproine]F-OH), the EC50 was 955 ± 289 nM.
